ChEMBL document CHEMBL3045223, “Synthesis, nematicidal and antimicrobial properties of Bis-[4-methoxy-3-[3-(4-fluorophenyl)-6-(4-methylphenyl)-2(aryl)-tetrahydro-2H-pyrazolo[3,4-d]thiazol-5-yl]phenyl]methanes” (2009)
Values after ≈ are worked out from the molar mass of the structure shown. Active and inactive are the calls of the source. The calls are words filed in the database; no cut-off is given here.

Experiments:
Type in all cases: functional
Pseudomonas aeruginosa [1] = assay: Antibacterial activity against Pseudomonas aeruginosa MTCC 741 assessed as growth arrest at 37 degC for 24 hr; conditions: MTCC 741, 24 h
[2] = test system: Lysinibacillus sphaericus; assay: Antibacterial activity against Lysinibacillus sphaericus MTCC 11 assessed as inhibition zones at 300 ug/disk at 37 degC for 24 hr; conditions: MTCC 11, 24 h, read-out: IZ
Klebsiella aerogenes [3] = assay: Antibacterial activity against Enterobacter aerogenes MTCC 39 assessed as growth arrest at 37 degC for 24 hr; conditions: MTCC 39, 24 h
[4] = test system: Ditylenchus myceliophagus; assay: Nematicidal activity against Ditylenchus myceliophagus assessed as immobility; conditions: read-out: LD50 (the source's name)
Staphylococcus aureus [5] = assay: Antibacterial activity against Staphylococcus aureus MTCC 96 assessed as growth arrest at 37 degC for 24 hr; conditions: MTCC 96, 24 h
Staphylococcus aureus [6] = assay: Antibacterial activity against Staphylococcus aureus MTCC 96 assessed as inhibition zones at 300 ug/disc at 37 degC for 24 hr; conditions: MTCC 96, 24 h, read-out: IZ
Trichophyton rubrum [7] = assay: Antifungal activity against Trichophyton rubrum IFO 9185 assessed as growth inhibition at 300 ug/disk at 37 degC for 48 hr; conditions: for zone of inhibition at 300 µg/disc: IFO 9185, 48 h, read-out: IZ
Candida albicans [8] = assay: Antifungal activity against Candida albicans ATCC 10231 assessed as growth inhibition at 37 degC for 48 hr; conditions: ATCC 10231, 48 h
Bacillus subtilis [9] = assay: Antibacterial activity against Bacillus subtilis MTCC 441 assessed as growth arrest at 37 degC for 24 hr; conditions: MTCC 441, 24 h
Klebsiella aerogenes [10] = assay: Antibacterial activity against Enterobacter aerogenes MTCC 39 assessed as inhibition zones at 300 ug/disk at 37 degC for 24 hr; conditions: MTCC 39, 24 h, read-out: IZ
[11] = test system: Chromobacterium violaceum; assay: Antibacterial activity against Chromobacterium violaceum MTCC 2656 assessed as growth arrest at 37 degC for 24 hr; conditions: MTCC 2656, 24 h
[12] = test system: Chromobacterium violaceum; assay: Antibacterial activity against Chromobacterium violaceum MTCC 2656 assessed as inhibition zones at 300 ug/disk at 37 degC for 24 hr; conditions: MTCC 2656, 24 h, read-out: IZ
Candida albicans [13] = assay: Antifungal activity against Candida albicans ATCC 10231 assessed as growth inhibition at 300 ug/disk at 37 degC for 48 hr; conditions: ATCC 10231, 48 h, read-out: IZ
Aspergillus fumigatus [14] = assay: Antifungal activity against Aspergillus fumigatus HIC 6094 assessed as growth inhibition at 300 ug/disc at 37 degC for 48 hr; conditions: for zone of inhibition at 300 µg/disc: HIC 6094, 48 h, read-out: IZ
Bacillus subtilis [15] = assay: Antibacterial activity against Bacillus subtilis MTCC 441 assessed as inhibition zones at 300 ug/disk at 37 degC for 24 hr; conditions: MTCC 441, 24 h, read-out: IZ
[16] = test system: Trichophyton mentagrophytes; assay: Antifungal activity against Trichophyton mentagrophytes IFO 40996 assessed as growth inhibition at 300 ug/disc at 37 degC for 48 hr; conditions: for zone of inhibition at 300 µg/disc: IFO 40996, 48 h, read-out: IZ
Trichophyton rubrum [17] = assay: Antifungal activity against Trichophyton rubrum IFO 9185 assessed as growth inhibition at 37 degC for 48 hr; conditions: IFO 9185, 48 h
Pseudomonas aeruginosa [18] = assay: Antibacterial activity against Pseudomonas aeruginosa MTCC 741 assessed as inhibition zones at 300 ug/disk at 37 degC for 24 hr; conditions: MTCC 741, 24 h, read-out: IZ
Aspergillus fumigatus [19] = assay: Antifungal activity against Aspergillus fumigatus HIC 6094 assessed as growth inhibition at 37 degC for 48 hr; conditions: HIC 6094, 48 h
[20] = test system: Lysinibacillus sphaericus; assay: Antibacterial activity against Lysinibacillus sphaericus MTCC 11 assessed as growth arrest at 37 degC for 24 hr; conditions: MTCC 11, 24 h
Caenorhabditis elegans = assay: Nematicidal activity against Caenorhabditis elegans assessed as immobility; conditions: read-out: LD50 (the source's name)
[21] = test system: Trichophyton mentagrophytes; assay: Antifungal activity against Trichophyton mentagrophytes IFO 40996 assessed as growth inhibition at 37 degC for 48 hr

COc1ccc(N2N=C3C(SC(c4cc(Cc5ccc(OC)c(C6SC7C(=NN(c8ccc(OC)cc8)C7c7ccc(F)cc7)N6c6ccc([N+](=O)[O-])cc6)c5)ccc4OC)N3c3ccc([N+](=O)[O-])cc3)C2c2ccc(F)cc2)cc1 (stereo unspecified)
MBC (Pseudomonas aeruginosa [1]): 25 µg/mL (≈ 22.2 µM) | MIC (Pseudomonas aeruginosa [1]): 12.5 µg/mL (≈ 11.1 µM) | zone of inhibition at 300 µg/disc [2]: 20 mm | MBC (Klebsiella aerogenes [3]): 12.5 µg/mL (≈ 11.1 µM) | MIC (Klebsiella aerogenes [3]): 6.25 µg/mL (≈ 5.55 µM) | LC50 [4]: 920 µg/mL (≈ 818 µM) | MBC (Staphylococcus aureus [5]): 25 µg/mL (≈ 22.2 µM) | MIC (Staphylococcus aureus [5]): 12.5 µg/mL (≈ 11.1 µM) | zone of inhibition at 300 µg/disc (Staphylococcus aureus [6]): 21 mm | inhibition zone (IZ) (Trichophyton rubrum [7]): inactive | MBC (Candida albicans [8]): 12.5 µg/mL (≈ 11.1 µM) | MIC (Candida albicans [8]): 6.25 µg/mL (≈ 5.55 µM) | MBC (Bacillus subtilis [9]): 25 µg/mL (≈ 22.2 µM) | MIC (Bacillus subtilis [9]): 12.5 µg/mL (≈ 11.1 µM) | zone of inhibition at 300 µg/disc (Klebsiella aerogenes [10]): 21 mm | MBC [11]: 25 µg/mL (≈ 22.2 µM) | MIC [11]: 12.5 µg/mL (≈ 11.1 µM) | zone of inhibition at 300 µg/disc [12]: 16 mm | zone of inhibition at 300 µg/disc (Candida albicans [13]): 13 mm | inhibition zone (IZ) (Aspergillus fumigatus [14]): inactive | zone of inhibition at 300 µg/disc (Bacillus subtilis [15]): 14 mm | inhibition zone (IZ) [16]: inactive | MBC (Trichophyton rubrum [17]): 25 µg/mL (≈ 22.2 µM) | MIC (Trichophyton rubrum [17]): 12.5 µg/mL (≈ 11.1 µM) | zone of inhibition at 300 µg/disc (Pseudomonas aeruginosa [18]): 9 mm | MBC (Aspergillus fumigatus [19]): 25 µg/mL (≈ 22.2 µM) | MIC (Aspergillus fumigatus [19]): 12.5 µg/mL (≈ 11.1 µM) | MBC [20]: 50 µg/mL (≈ 44.4 µM) | MIC [20]: 12.5 µg/mL (≈ 11.1 µM) | LC50 (Caenorhabditis elegans): 810 µg/mL (≈ 720 µM) | MBC [21]: inactive | MIC [21]: inactive

COc1ccc(Cc2ccc(OC)c(C3SC4C(=NN(c5ccccc5)C4c4ccc(F)cc4)N3c3ccc([N+](=O)[O-])cc3)c2)cc1C1SC2C(=NN(c3ccccc3)C2c2ccc(F)cc2)N1c1ccc([N+](=O)[O-])cc1 (stereo unspecified)
MBC (Pseudomonas aeruginosa [1]): 25 µg/mL (≈ 23.5 µM) | MIC (Pseudomonas aeruginosa [1]): 6.25 µg/mL (≈ 5.87 µM) | zone of inhibition at 300 µg/disc [2]: 22 mm | MBC (Klebsiella aerogenes [3]): 25 µg/mL (≈ 23.5 µM) | MIC (Klebsiella aerogenes [3]): 12.5 µg/mL (≈ 11.7 µM) | LC50 [4]: 800 µg/mL (≈ 751 µM) | MBC (Staphylococcus aureus [5]): 25 µg/mL (≈ 23.5 µM) | MIC (Staphylococcus aureus [5]): 6.25 µg/mL (≈ 5.87 µM) | zone of inhibition at 300 µg/disc (Staphylococcus aureus [6]): 20 mm | zone of inhibition at 300 µg/disc (Trichophyton rubrum [7]): 10 mm | MBC (Candida albicans [8]): 25 µg/mL (≈ 23.5 µM) | MIC (Candida albicans [8]): 12.5 µg/mL (≈ 11.7 µM) | MBC (Bacillus subtilis [9]): 25 µg/mL (≈ 23.5 µM) | MIC (Bacillus subtilis [9]): 12.5 µg/mL (≈ 11.7 µM) | zone of inhibition at 300 µg/disc (Klebsiella aerogenes [10]): 24 mm | MBC [11]: 50 µg/mL (≈ 46.9 µM) | MIC [11]: 25 µg/mL (≈ 23.5 µM) | zone of inhibition at 300 µg/disc [12]: 11 mm | zone of inhibition at 300 µg/disc (Candida albicans [13]): 8 mm | zone of inhibition at 300 µg/disc (Aspergillus fumigatus [14]): 11 mm | zone of inhibition at 300 µg/disc (Bacillus subtilis [15]): 21 mm | zone of inhibition at 300 µg/disc [16]: 9 mm | MBC (Trichophyton rubrum [17]): 25 µg/mL (≈ 23.5 µM) | MIC (Trichophyton rubrum [17]): 6.25 µg/mL (≈ 5.87 µM) | zone of inhibition at 300 µg/disc (Pseudomonas aeruginosa [18]): 11 mm | MBC (Aspergillus fumigatus [19]): 50 µg/mL (≈ 46.9 µM) | MIC (Aspergillus fumigatus [19]): 12.5 µg/mL (≈ 11.7 µM) | MBC [20]: 12.5 µg/mL (≈ 11.7 µM) | MIC [20]: 6.25 µg/mL (≈ 5.87 µM) | LC50 (Caenorhabditis elegans): 620 µg/mL (≈ 582 µM) | MBC ([21]; IFO 40996, 48 h): 12.5 µg/mL (≈ 11.7 µM) | MIC ([21]; IFO 40996, 48 h): 12.5 µg/mL (≈ 11.7 µM)

COc1ccc(Cc2ccc(OC)c(C3SC4C(=NN(Cc5ccccc5)C4c4ccc(F)cc4)N3c3ccc(C)cc3)c2)cc1C1SC2C(=NN(Cc3ccccc3)C2c2ccc(F)cc2)N1c1ccc(C)cc1 (stereo unspecified)
MBC (Pseudomonas aeruginosa [1]): 25 µg/mL (≈ 24.2 µM) | MIC (Pseudomonas aeruginosa [1]): 12.5 µg/mL (≈ 12.1 µM) | zone of inhibition at 300 µg/disc [2]: 14 mm | MBC (Klebsiella aerogenes [3]): 50 µg/mL (≈ 48.5 µM) | MIC (Klebsiella aerogenes [3]): 12.5 µg/mL (≈ 12.1 µM) | LC50 [4]: 190 µg/mL (≈ 184 µM) | MBC (Staphylococcus aureus [5]): 6.25 µg/mL (≈ 6.06 µM) | MIC (Staphylococcus aureus [5]): 6.25 µg/mL (≈ 6.06 µM) | zone of inhibition at 300 µg/disc (Staphylococcus aureus [6]): 24 mm | zone of inhibition at 300 µg/disc (Trichophyton rubrum [7]): 15 mm | MBC (Candida albicans [8]): 6.25 µg/mL (≈ 6.06 µM) | MIC (Candida albicans [8]): 3.12 µg/mL (≈ 3.03 µM) | MBC (Bacillus subtilis [9]): 12.5 µg/mL (≈ 12.1 µM) | MIC (Bacillus subtilis [9]): 6.25 µg/mL (≈ 6.06 µM) | zone of inhibition at 300 µg/disc (Klebsiella aerogenes [10]): 22 mm | MBC [11]: 12.5 µg/mL (≈ 12.1 µM) | MIC [11]: 12.5 µg/mL (≈ 12.1 µM) | zone of inhibition at 300 µg/disc [12]: 17 mm | zone of inhibition at 300 µg/disc (Candida albicans [13]): 22 mm | zone of inhibition at 300 µg/disc (Aspergillus fumigatus [14]): 16 mm | zone of inhibition at 300 µg/disc (Bacillus subtilis [15]): 20 mm | zone of inhibition at 300 µg/disc [16]: 16 mm | MBC (Trichophyton rubrum [17]): 25 µg/mL (≈ 24.2 µM) | MIC (Trichophyton rubrum [17]): 12.5 µg/mL (≈ 12.1 µM) | zone of inhibition at 300 µg/disc (Pseudomonas aeruginosa [18]): 14 mm | MBC (Aspergillus fumigatus [19]): 25 µg/mL (≈ 24.2 µM) | MIC (Aspergillus fumigatus [19]): 25 µg/mL (≈ 24.2 µM) | MBC [20]: 12.5 µg/mL (≈ 12.1 µM) | MIC [20]: 6.25 µg/mL (≈ 6.06 µM) | LC50 (Caenorhabditis elegans): 210 µg/mL (≈ 204 µM) | MBC ([21]; IFO 40996, 48 h): 25 µg/mL (≈ 24.2 µM) | MIC ([21]; IFO 40996, 48 h): 25 µg/mL (≈ 24.2 µM)
